Laboratory results: patent US8936806B2, “Periostin induces proliferation of cardiomyocytes and promotes cardiac regeneration” (Children's Medical Center Corporation, priority 2007, dated 2015)

Key:
[1] = tested on: primary adult rat ventricular cardiomyocytes; test: DNA synthesis (BrdU uptake, immunofluorescence) in primary adult rat ventricular cardiomyocytes; assay type: cell-based
Source text: Primary neonatal rat ventricular cardiomyocytes were isolated using the Neomyts kit (Cellutron, Highland Park, N.J.), seeded at a density of 10^5 cells/cm^2 onto gelatin-coated cover slips, stimulated for 3 days, and labeled with BrdU for the terminal 2 days. Primary adult ventricular cardiomyocytes were isolated from male (300 gm) Wistar rats (Charles River Laboratories) and maintained as described (Engel, F. B. et al. p38 MAP kinase inhibition enables proliferation of adult mammalian cardiomyocytes. Genes Dev 19, 1175-87 (2005)). Adult cardiomyocytes were stimulated daily for 9 days and labeled with 30 μM BrdU for the terminal 3 days. Cardiomyocytes were stimulated with periostin (500 ng/mL) and FGF (100 ng/mL). […] The vehicle used to dissolve factors or chemicals was added to unstimulated samples, which were then processed together with the test samples. DNA-synthesis was analyzed by visualization of BrdU uptake and cytokinesis was determined by detection of the cleavage furrow and the midbody with an antibody against aurora B kinase as described (Engel, F. B. et al. p38 MAP kinase inhibition enables proliferation of adult mammalian cardiomyocytes. Genes Dev 19, 1175-87 (2005)). Signals were visualized with secondary antibodies conjugated to Alexa 488, Alexa 546, Alexa 594, and Alexa 647 (Invitrogen). […] For image acquisition, the value for γ was set at 1 and the lookup table settings were linear. Primary adult rat ventricular cardiomyocytes were grown on gridded cover slips (Electron Microscopy Services, Ft. Washington, Pa.) and imaged in phase contrast at 10× magnification. Cardiomyocytes were transduced with an adenovirus leading to nuclear expression of histone2B-GFP (Shi, Q. & King, R. W. Nature 437, 1038-42 (2005)) under control of the chicken troponin T promoter ([…]. Am J Physiol Cell Physiol 286, […]-64 (2004)). Nuclei were visualized at 10× magnification with a mercury-arc lamp dimmed to 1.5% with a neutral density filter. […] Images of BrdU-positive cardiomyocytes were matched with the corresponding images from before stimulation. For quantification, differentiated cardiomyocytes were defined as striated rod-shaped structures with length/width ratio>1.5.

[2] = tested on: primary adult rat ventricular cardiomyocytes; test: Cytokinesis (aurora B kinase) in primary adult rat ventricular cardiomyocytes; assay type: cell-based; details: 9 days stimulation
Source text: (§1) Primary neonatal rat ventricular cardiomyocytes were isolated using the Neomyts kit (Cellutron, Highland Park, N.J.), seeded at a density of 10^5 cells/cm^2 onto gelatin-coated cover slips, stimulated for 3 days, and labeled with BrdU for the terminal 2 days. Primary adult ventricular cardiomyocytes were isolated from male (300 gm) Wistar rats (Charles River Laboratories) and maintained as described (Engel, F. B. et al. p38 MAP kinase inhibition enables proliferation of adult mammalian cardiomyocytes. Genes Dev 19, 1175-87 (2005)). Adult cardiomyocytes were stimulated daily for 9 days and labeled with 30 μM BrdU for the terminal 3 days. Cardiomyocytes were stimulated with periostin (500 ng/mL) and FGF (100 ng/mL). Inhibiting antibodies were added at a concentration of 10 μg/mL, cRGD at 10 μM, U0126 at 10 μM, PD98059 at 1 μM, LY294002 at 10 μM, and Wortmannin at 0.1 μM 30 min prior to stimulation. The vehicle used to dissolve factors or chemicals was added to unstimulated samples, which were then processed together with the test samples.
(§2) DNA-synthesis was analyzed by visualization of BrdU uptake and cytokinesis was determined by detection of the cleavage furrow and the midbody with an antibody against aurora B kinase as described (Engel, F. B. et al. p38 MAP kinase inhibition enables proliferation of adult mammalian cardiomyocytes. Genes Dev 19, 1175-87 (2005)). Signals were visualized with secondary antibodies conjugated to Alexa 488, Alexa 546, Alexa 594, and Alexa 647 (Invitrogen). Nuclei were visualized with 4′,6′-diamidino-2-phenylindole (DAPI, Invitrogen). For image acquisition, the value for γ was set at 1 and the lookup table settings were linear.

[3] = tested on: primary neonatal rat ventricular cardiomyocytes; test: DNA synthesis, mitosis and cytokinesis in primary neonatal rat ventricular cardiomyocytes; assay type: cell-based; details: periostin plus FGF
Source text: as §1, §2

[4] = tested on: atrial natriuretic factor (ANF); test: Transcription of atrial natriuretic factor by RT-PCR in neonatal cardiomyocytes; assay type: cell-based, rat; details: 72 hr stimulation
Experimental: RNA was prepared using Trizol reagent (Invitrogen) from neonatal rat ventricular cardiomyocytes after 72 hr of stimulation. Complementary DNA was synthesized from 2 μg RNA with the SuperScriptIII kit (Invitrogen) using oligo-dT primers. One μL cDNA was used as template for 20 μL PCR-reactions (95° C. for 2 min, 30 cycles of 95° C. for 2 min, 55° C. for 2 min, 72° C. for 5 min, followed by 72° C. for 10 min). Oligonucleotide primers used for detection of ANF were F: 5′-[…]-3′ (Seq ID No. 2), R: 5′-[…]-3′ (Seq ID No. 3), β-actin were F: 5′-[…]-3′ (Seq ID No. 4), R: 5′-[…]-3′ (Seq ID No. 5), […] were F: 5′-[…]-3′ (Seq ID No. 6), R: 5′-[…]-3′ (Seq ID No. 7); SMA were F: 5′-[…]-3′ (Seq ID No. 8), R: 5′-[…]-3′ (Seq ID No. 9); SERCA2 were F: 5′-[…]-3′ (Seq ID No. 10), R: 5′-[…]-3′ (Seq ID No. 11), and for GAPDH: 5′-[…]-3′ (Seq ID No. 12), R: 5′-[…]-3′ (Seq ID No. 13).

[5] = tested on: adult ventricular cardiomyocytes; test: Transcription of fetal gene program (RT-PCR) in adult ventricular cardiomyocytes; assay type: cell-based, rat
[6] = tested on: differentiated cardiomyocytes; test: Hypertrophy by [3H]leucine uptake; assay type: cell-based, rat; details: phenylephrine 10 mM [sic]; all time points tested
Source text: Induction of the fetal gene program is accompanied by increased protein synthesis leading to cardiomyocyte hypertrophy. We assessed cardiomyocyte hypertrophy by measuring uptake of [^3H]leucine.

Compound | cardiomyocyte DNA synthesis ([1]; 9 days stimulation (periostin 500 ng/mL, FGF 100 ng/mL), BrdU terminal 3 days) [%] | effect on periostin-induced cardiomyocyte DNA synthesis when added ([1]; FGF 100 ng/ml, SB203580 5 mM or 10 mM as printed) | cytokinesis, of all differentiated cardiomyocytes [2] [%] | effect of co-stimulation with periostin on DNA synthesis [3] | transcription of atrial natriuretic factor (ANF) [4] | transcription of SERCA2 [5] | transcription of β-MHC, SMA and ANF [5] | [3H]leucine uptake (hypertrophy) [6]
FGF: FGF1 provided by R&D Systems; known stimulus of cardiomyocyte DNA synthesis | 1.3±0.6 | increased | 0.3±0.1 | additive effect | induced | – | – | –
CNC[C@H](O)c1cccc(O)c1 [phenylephrine, reference compound] | – | – | – | – | induced | slightly reduced | increased transcription | induced
